Test results taken from ChEMBL document CHEMBL4304773, “Nitroimidazole-containing compounds and their antibacterial and antitubercular activities” (2019).
≈ marks a conversion by molar mass, not a printed value. Blank lines part the entries; values can stand above or below the compound they belong to.

Key:
Proteus vulgaris = assay: Antibacterial activity against Proteus vulgaris; type: functional
Klebsiella aerogenes [1] = assay: Antibacterial activity against Klebsiella aerogenes; type: functional
Pseudomonas aeruginosa [2] = assay: Antibacterial activity against Pseudomonas aeruginosa; type: functional
[3] = system: Staphylococcus epidermidis; assay: Antibacterial activity against Staphylococcus epidermidis; type: functional
Candida albicans = assay: Antifungal activity against Candida albicans; type: functional
Staphylococcus aureus [4] = assay: Antibacterial activity against Staphylococcus aureus; type: functional
Escherichia coli [5] = assay: Antibacterial activity against Escherichia coli; type: functional
Enterococcus faecalis [6] = assay: Antibacterial activity against Enterococcus faecalis; type: functional
Salmonella typhimurium = assay: Antibacterial activity against Salmonella typhimurium; type: functional, Salmonella enterica subsp. enterica serovar Typhimurium; settings: Salmonella enterica
Bacillus subtilis = assay: Antibacterial activity against Bacillus subtilis PTCC 1023 after 18 hrs by two fold serial dilution; type: functional; settings: PTCC 1023, 18 h
Escherichia coli [7] = assay: Antibacterial activity against Escherichia coli ATCC 8739 after 18 hrs by two fold serial dilution; type: functional; settings: ATCC 8739, 18 h
Klebsiella aerogenes [8] = assay: Antibacterial activity against Enterobacter aerogenes PTCC 1221 after 18 hrs by two fold serial dilution; type: functional; settings: PTCC 1221, 18 h
Staphylococcus aureus [9] = assay: Antibacterial activity against Staphylococcus aureus ATCC 6538 after 18 hrs by two fold serial dilution; type: functional; settings: ATCC 6538, 18 h
Klebsiella pneumoniae [10] = assay: Antibacterial activity against Klebsiella pneumoniae ATCC 10031 after 18 hrs by two fold serial dilution; type: functional; settings: ATCC 10031, 18 h
Clostridioides difficile [11] = assay: Antibacterial activity against Clostridium difficile 630 assessed as zone of inhibition at 2.5 ug/disc after 24 hrs; type: functional; settings: Clostridioides difficile, 630, 24 h; read-out: IZ
Clostridioides difficile [12] = assay: Antibacterial activity against Clostridium difficile R20291 assessed as zone of inhibition at 2.5 ug/disc after 24 hrs; type: functional; settings: read-out: IZ
Clostridioides difficile [13] = assay: Antibacterial activity against Clostridium difficile ATCC 43603 assessed as zone of inhibition at 2.5 ug/disc after 24 hrs; type: functional; settings: ATCC 43603, 24 h, read-out: IZ
[14] = system: Staphylococcus epidermidis; assay: Potency index, ratio of chloramphenicol MIC to test compound MIC for Staphylococcus epidermidis; type: functional
Enterococcus faecalis [15] = assay: Potency index, ratio of chloramphenicol MIC to test compound MIC for Enterococcus faecalis; type: functional
Helicobacter pylori [16] = assay: Antibacterial activity against Helicobacter pylori NCTC 11637; type: functional
Helicobacter pylori [17] = assay: Antibacterial activity against metronidazole-resistant Helicobacter pylori clinical isolates; type: functional
Helicobacter pylori [18] = assay: Antibacterial activity against Helicobacter pylori; type: functional
Helicobacter pylori [19] = assay: Antibacterial activity against metronidazole-resistant Helicobacter pylori; type: functional
Helicobacter pylori [20] = assay: Antibacterial activity against Helicobacter pylori clinical isolate assessed as zone of inhibition at 8 ug/disc; type: functional; settings: read-out: IZ
Helicobacter pylori [21] = assay: Antibacterial activity against drug-resistant Helicobacter pylori assessed as zone of inhibition at 8 ug/disc; type: functional; settings: read-out: IZ
Helicobacter pylori [22] = assay: Antibacterial activity against drug-sensitive Helicobacter pylori assessed as zone of inhibition at 8 ug/disc; type: functional; settings: read-out: IZ
Klebsiella pneumoniae [23] = assay: Antibacterial activity against Klebsiella pneumoniae after 24 hrs; type: functional
Staphylococcus aureus [24] = assay: Antibacterial activity against Staphylococcus aureus ATCC 25923 after 24 hrs; type: functional; settings: ATCC 25923, 24 h
Escherichia coli [25] = assay: Antibacterial activity against Escherichia coli ATCC 25922 after 24 hrs; type: functional; settings: ATCC 25922, 24 h
Pseudomonas aeruginosa [26] = assay: Antibacterial activity against Pseudomonas aeruginosa after 24 hrs; type: functional
Escherichia coli [27] = assay: Antibacterial activity against drug-resistant Escherichia coli after 24 hrs; type: functional
Pseudomonas aeruginosa [28] = assay: Antibacterial activity against Pseudomonas aeruginosa ATCC 27853 after 24 hrs; type: functional; settings: ATCC 27853, 24 h
[29] = system: Staphylococcus epidermidis; assay: Antibacterial activity against Staphylococcus epidermidis ATCC 12228 after 18 hrs by two fold serial dilution; type: functional; settings: ATCC 12228, 18 h
Staphylococcus aureus [30] = assay: Antibacterial activity against methicillin-resistant Staphylococcus aureus after 24 hrs; type: functional
Staphylococcus aureus [31] = assay: Antibacterial activity against Staphylococcus aureus ATCC 29213 after 24 hrs; type: functional; settings: ATCC 29213, 24 h
Enterococcus faecalis [32] = assay: Antibacterial activity against Enterococcus faecalis after 24 hrs; type: functional
Escherichia coli [33] = assay: Antibacterial activity against Escherichia coli infected in mouse; type: functional
[34] = system: Staphylococcus epidermidis; assay: Antibacterial activity against methicillin-sensitive Staphylococcus epidermidis by two fold dilution method; type: functional
Staphylococcus aureus [35] = assay: Antibacterial activity against methicillin-sensitive Staphylococcus aureus by two fold dilution method; type: functional

MIC (Proteus vulgaris): 31.2 to 500 µg/mL (≈ 85.8 to 1370 µM) | MIC (Klebsiella aerogenes [1]): 31.2 to 500 µg/mL (≈ 85.8 to 1370 µM) | MIC (Pseudomonas aeruginosa [2]): 31.2 to 500 µg/mL (≈ 85.8 to 1370 µM) | MIC [3]: 31.2 to 500 µg/mL (≈ 85.8 to 1370 µM) | MIC (Candida albicans): 31.2 to 500 µg/mL (≈ 85.8 to 1370 µM) | MIC (Staphylococcus aureus [4]): 31.2 to 500 µg/mL (≈ 85.8 to 1370 µM) | MIC (Escherichia coli [5]): 31.2 to 500 µg/mL (≈ 85.8 to 1370 µM) | MIC (Enterococcus faecalis [6]): 31.2 to 500 µg/mL (≈ 85.8 to 1370 µM) | MIC (Salmonella typhimurium): 31.2 to 500 µg/mL (≈ 85.8 to 1370 µM)
Structure (SMILES): Cc1ncc([N+](=O)[O-])n1CCN1C(=O)S/C(=C\c2cccs2)C1=O

MIC (Bacillus subtilis): > 64 µg/mL | MIC (Escherichia coli [7]): > 64 µg/mL | MIC (Klebsiella aerogenes [8]): > 64 µg/mL | MIC (Staphylococcus aureus [9]): 4 to 32 µg/mL (≈ 13.3 to 107 µM) | MIC (Klebsiella pneumoniae [10]): > 64 µg/mL
Structure (SMILES): CC(=O)Nc1nnc(Sc2c([N+](=O)[O-])ncn2C)s1

MIC (Proteus vulgaris): 7.8 to 250 µg/mL (≈ 24.1 to 774 µM) | MIC (Klebsiella aerogenes [1]): 7.8 to 250 µg/mL (≈ 24.1 to 774 µM) | MIC (Pseudomonas aeruginosa [2]): 7.8 to 250 µg/mL (≈ 24.1 to 774 µM) | MIC [3]: 7.8 to 250 µg/mL (≈ 24.1 to 774 µM) | MIC (Candida albicans): 7.8 to 250 µg/mL (≈ 24.1 to 774 µM) | MIC (Staphylococcus aureus [4]): 7.8 to 250 µg/mL (≈ 24.1 to 774 µM) | MIC (Escherichia coli [5]): 7.8 to 250 µg/mL (≈ 24.1 to 774 µM) | MIC (Enterococcus faecalis [6]): 7.8 to 250 µg/mL (≈ 24.1 to 774 µM) | MIC (Salmonella typhimurium): 7.8 to 250 µg/mL (≈ 24.1 to 774 µM)
Structure (SMILES): O=C(N[C@H](CO)[C@H](O)c1ccc([N+](=O)[O-])cc1)C(Cl)Cl [CHLORAMPHENICOL]

Structure (SMILES): C/C=C/c1nc(CS(=O)(=O)c2ccccc2)c([N+](=O)[O-])n1C
zone of inhibition at 2.5 µg/disc (Clostridioides difficile [11]): 13.5 to 24.5 mm | zone of inhibition at 2.5 µg/disc (Clostridioides difficile [12]): 13.5 to 24.5 mm | zone of inhibition at 2.5 µg/disc (Clostridioides difficile [13]): 13.5 to 24.5 mm

MIC [3]: 62.5 µg/mL (≈ 174 µM) | MIC (Enterococcus faecalis [6]): 62.5 µg/mL (≈ 174 µM)
Structure (SMILES): Cc1ncc([N+](=O)[O-])n1CCN1C(=O)S/C(=C\c2ccccc2)C1=O
Ratio [14]: 2 | Ratio (Enterococcus faecalis [15]): 8

Structure (SMILES): Cc1ncc([N+](=O)[O-])n1CCOc1no[n+]([O-])c1-c1ccccc1
MIC90 (Helicobacter pylori [16]): 0.5 to 32 µg/mL (≈ 1.51 to 96.6 µM) | MIC90 (Helicobacter pylori [17]): 0.5 to 32 µg/mL (≈ 1.51 to 96.6 µM) | MIC90 (Helicobacter pylori [18]): 1 to 4 µg/mL (≈ 3.02 to 12.1 µM)

MIC (Bacillus subtilis): > 64 µg/mL | MIC (Escherichia coli [7]): > 64 µg/mL | MIC (Klebsiella aerogenes [8]): > 64 µg/mL | MIC (Staphylococcus aureus [9]): 4 to 32 µg/mL (≈ 11.4 to 91.6 µM) | MIC (Klebsiella pneumoniae [10]): > 64 µg/mL
Structure (SMILES): COc1ccc(-c2nnc(Sc3c([N+](=O)[O-])ncn3C)s2)cc1

Structure (SMILES): Cc1ncc([N+](=O)[O-])n1CCO [METRONIDAZOLE]
MIC90 (Helicobacter pylori [19]): > 32 µg/mL | zone of inhibition at 2.5 µg/disc (Clostridioides difficile [11]): 9 to 22 mm | zone of inhibition at 8 µg/disc (Helicobacter pylori [20]): 16.3 mm | zone of inhibition at 2.5 µg/disc (Clostridioides difficile [12]): 9 to 22 mm | zone of inhibition at 8 µg/disc (Helicobacter pylori [21]): 11 mm | zone of inhibition at 8 µg/disc (Helicobacter pylori [22]): 18 mm | zone of inhibition at 2.5 µg/disc (Clostridioides difficile [13]): 9 to 22 mm

MIC (Proteus vulgaris): 31.2 to 500 µg/mL (≈ 89.7 to 1440 µM) | MIC (Klebsiella aerogenes [1]): 31.2 to 500 µg/mL (≈ 89.7 to 1440 µM) | MIC (Pseudomonas aeruginosa [2]): 31.2 to 500 µg/mL (≈ 89.7 to 1440 µM) | MIC [3]: 31.2 to 500 µg/mL (≈ 89.7 to 1440 µM) | MIC (Candida albicans): 31.2 to 500 µg/mL (≈ 89.7 to 1440 µM) | MIC (Staphylococcus aureus [4]): 31.2 to 500 µg/mL (≈ 89.7 to 1440 µM) | MIC (Escherichia coli [5]): 31.2 to 500 µg/mL (≈ 89.7 to 1440 µM) | MIC (Enterococcus faecalis [6]): 31.2 to 500 µg/mL (≈ 89.7 to 1440 µM) | MIC (Salmonella typhimurium): 31.2 to 500 µg/mL (≈ 89.7 to 1440 µM)
Structure (SMILES): Cc1ncc([N+](=O)[O-])n1CCN1C(=O)S/C(=C\c2ccco2)C1=O

Structure (SMILES): CCn1cc(C(=O)O)c(=O)c2cc(F)c(N3CCNCC3)cc21 [NORFLOXACIN]
MIC (Bacillus subtilis): 0.13 to 1 µg/mL (≈ 0.407 to 3.13 µM) | MIC (Klebsiella pneumoniae [23]): 13 to 1600 µM (≈ 4.15 to 512 µg/mL) | MIC (Staphylococcus aureus [24]): 13 to 1600 µM (≈ 4.15 to 512 µg/mL) | MIC (Escherichia coli [25]): 13 to 1600 µM (≈ 4.15 to 512 µg/mL) | MIC (Escherichia coli [7]): 0.13 to 1 µg/mL (≈ 0.407 to 3.13 µM) | MIC (Pseudomonas aeruginosa [26]): 13 to 1600 µM (≈ 4.15 to 512 µg/mL) | MIC (Escherichia coli [27]): 100 µM (≈ 31.9 µg/mL) | MIC (Staphylococcus aureus [9]): 0.13 to 1 µg/mL (≈ 0.407 to 3.13 µM) | MIC (Pseudomonas aeruginosa [28]): 13 to 1600 µM (≈ 4.15 to 512 µg/mL) | MIC [29]: 0.13 to 1 µg/mL (≈ 0.407 to 3.13 µM) | MIC (Staphylococcus aureus [30]): 13 to 1600 µM (≈ 4.15 to 512 µg/mL) | MIC (Staphylococcus aureus [31]): 13 to 1600 µM (≈ 4.15 to 512 µg/mL) | MIC (Enterococcus faecalis [32]): 13 to 1600 µM (≈ 4.15 to 512 µg/mL) | MIC (Klebsiella pneumoniae [10]): 0.13 to 1 µg/mL (≈ 0.407 to 3.13 µM) | ED50 (Escherichia coli [33]): 5.6 mg/kg

Structure (SMILES): Cn1c([N+](=O)[O-])cnc1-c1nnc(S)s1
zone of inhibition at 8 µg/disc (Helicobacter pylori [20]): 20.9 to 50 mm | zone of inhibition at 8 µg/disc (Helicobacter pylori [22]): 20.9 to 50 mm

Structure (SMILES): Cc1ncc([N+](=O)[O-])n1CCOc1no[n+]([O-])c1S(=O)(=O)c1ccccc1
MIC90 (Helicobacter pylori [16]): 0.5 to 32 µg/mL (≈ 1.26 to 80.9 µM) | MIC90 (Helicobacter pylori [17]): 0.5 to 32 µg/mL (≈ 1.26 to 80.9 µM) | MIC90 (Helicobacter pylori [18]): 1 to 4 µg/mL (≈ 2.53 to 10.1 µM)

Structure (SMILES): COc1c(N2CCNC(C)C2)c(F)cc2c(=O)c(C(=O)O)cn(C3CC3)c12 (centres undefined) [GATIFLOXACIN]
MIC [34]: 0.06 to 16 µg/mL (≈ 0.16 to 42.6 µM) | MIC (Staphylococcus aureus [35]): 0.06 to 16 µg/mL (≈ 0.16 to 42.6 µM)

Structure (SMILES): Cc1ncc([N+](=O)[O-])n1CCOc1nonc1-c1ccccc1
MIC90 (Helicobacter pylori [16]): 0.5 to 32 µg/mL (≈ 1.59 to 101 µM) | MIC90 (Helicobacter pylori [17]): 0.5 to 32 µg/mL (≈ 1.59 to 101 µM) | MIC90 (Helicobacter pylori [18]): 1 to 4 µg/mL (≈ 3.17 to 12.7 µM)
